Data published in PMC11266932, “Enhanced absorption of prenylated cinnamic acid derivatives from Brazilian green propolis by turmeric in humans and rats” (Food Science & Nutrition, 2024).
Like-named read-outs stand apart in the source and are kept apart here.

Tests used:
[1] = Clinical trial: plasma concentration and AUC of cinnamic acid derivatives after ingestion of BGP alone or BGP plus herbal extract mixture; format: in vivo; details: humans, BGP and herbal extracts co-administered; for fold increase of AUC versus BGP administered alone: 0–24 h; for AUC: plasma 0–24 h, after enzymatic deconjugation, mean ± SD, n = 6
Method: Six volunteers (three males and three females) completely understood the study protocol and consented to participate in the research. The following exclusion criteria were used for shortlisting participants: past or present medical history (asthma, significant allergies, heart, liver, kidney, and urinary tract disease); prescribed medication; pregnancy; smoking (>20 cigarettes/day); alcohol consumption (>500 mL/day of beer); use of dietary supplements and healthy foods; and participation in other clinical trials. The participants were instructed to refrain from consuming propolis and propolis‐containing foods and beverages during the study period and 1 week prior to the start of the study. After a 12‐h fast, the participants were given a test food comprising the encapsulated BGP powder or a mixture of the BGP powder and herbal extracts in two experimental periods separated by 1 week. […] The collected samples were centrifuged at 1500 g for 3 min at 23 ± 2°C to separate the plasma, which was subsequently preserved at −80°C until further sample preparation.
Briefly, 50 μL of plasma was treated with a sulfatase/β‐glucuronidase solution (sulfatase 15 units/sample) in 100 mM sodium acetate and 5 mM ascorbate at 37°C for 1 h. Following the incubation, 850 μL of methanol was added to the samples to stop the deconjugation reaction, after which centrifugation was performed at 2000 g for 10 min at 23 ± 2°C. The supernatant was evaporated under nitrogen gas and then reconstituted in a fixed volume of methanol. The samples were filtered through a 0.22 μm PTFE membrane and then analyzed by LC–MS/MS.
Briefly, 5 μL of the sample was injected into a reversed‐phase column (Acquity UPLC BEH C18, 2.1 × 100 mm, ID. 1.7 μm; Waters, Milford, MA, USA) held at 30°C. The elution was performed using solvent A (0.1% formic acid) and solvent B (acetonitrile) at a flow rate of 0.3 mL/min. The gradient profiles were as follows: 5% B (0–2 min), 5–95% B (2–22 min), 95% B (22–25 min), and 5% B (25–30 min). Tandem mass spectrometry (MS/MS) was conducted using an ion trap mass spectrometer with a heated electrospray ion source (HESI) in both positive and negative ionization modes (scan range m/z 70–1000). […] External standard curves for cinnamic acid derivatives were generated using eight concentrations of authentic standard solutions (1, 5, 10, 50, 100, 250, 500, and 1000 ng/mL).
Quantification of cinnamic acid derivatives in the plasma was performed using the Trace Finder software version 4.1 (Thermo Scientific). The plasma concentration versus time data for the analytes obtained from each human and rat were entered into a Microsoft Excel spreadsheet. The area under the plasma concentration–time curve (AUC) was calculated using the linear trapezoidal rule, extending to the last sampling point.

[2] = target: T1, multidrug resistance 1 (MDR1), P‐gp (Homo sapiens, UniProt P08183); test: Bidirectional transport assay across MDCK II-MDR1 cell monolayer; format: in vitro ADME; details: for Net flux ratio: ER of MDCK II‐MDR1 divided by ER of parent MDCK II, >2 = transporter-mediated efflux
T1 construct: host or cells: MDCK II (Madin-Darby canine kidney) cells overexpressing MDR1
Method: The Madin‐Darby canine kidney (MDCK II) cell line and MDCK II cells overexpressing multidrug resistance 1 (MDR1) or breast cancer resistance protein (BCRP) were purchased from the Netherlands Cancer Institute (Amsterdam, Netherlands) and SOLVO Biotechnology (Szeged, Hungary), respectively. The cell lines were routinely cultured in Dulbecco's modified Eagle's medium (DMEM) containing 10% fetal bovine serum and 1% penicillin/streptomycin at 37°C in 5% CO2. All cells were seeded in a feeder tray at a density of 3–6 × 10^4 cells/well and grown for 3–4 days. On the day of the transport study, cell monolayers were washed with Hanks' balanced salt solution (HBSS) buffer containing 0.1% BSA (pH 7.4) and incubated at 37°C for 20 min. Artepillin C and drupanin dissolved in DMSO (10 mM) were added to the transport buffer (HBSS containing 10 mM HEPES, 0.2% glucose, 0.1% BSA, pH 7.4) to a final concentration of 10 μM and then loaded into the apical or basolateral chamber. After 120 min of incubation, 150 μL of the aliquots were collected from the donor and receiver chambers and mixed with an equal volume of 50% methanol. After centrifugation at 3000 rpm for 10 min at 4°C, the supernatants were filtered and subjected to LC–MS/MS analysis.
The in vitro samples were analyzed using HPLC (LC‐20A, Shimadzu, Kyoto, Japan) with a reversed‐phase column (Inertsil ODS‐3, 2.1 × 33 mm, ID. 3 μm, GL Sciences, Tokyo, Japan) held at 40°C. The mobile solvents used were water with 10 mM ammonium acetate (pH 4.0, A) and methanol (B) pumped at a flow rate of 0.4 mL/min. The following gradient was employed: 10%–90% B (0–0.5 min), 90% B (0.5–2.5 min), and 10% B (2.5–4 min). The eluent was monitored using a triple quadrupole mass spectrometer (API 4000, AB Sciex, Framingham, MA, USA) incorporating an electrospray ion source (ESI) operating in the multiple reaction monitoring mode. The ESI source was operated in negative ionization mode at 600°C with a spray voltage of −4.5 kV. The curtain gas (nitrogen), collision gas (nitrogen), nebulizer gas (whole air), and drying gas (whole air) were set at 40, 5, 50, and 70 psi, respectively. […] Artepillin C and drupanin were diluted in 50% methanol to concentrations of 1.6, 3.2, 8, 40, 200, 1000, and 2000 nM and were used as external standards. Sulfaphenazole (0.2 μM) was used as an internal standard.
The apparent permeability coefficients (Papp) for both directions, from the apical side to the basolateral side (A to B) and from the basolateral side to the apical side (B to A) in the cell monolayer, were calculated using the following equation: (1) Papp=dQ/dt/A×C0 where dQ/dt is the permeation rate (nmol/s), A is the membrane area (cm^2), and C0 is the initial concentration of the compound in the donor compartment (nM). The efflux ratios (ER) in the B‐to‐A and A‐to‐B directions were determined using the following equation: (2) ER=PappBtoA/PappAtoB
Net flux ratios were calculated by dividing the ER obtained from MDCK II‐MDR1 (or BCRP) cells by that obtained from the parent MDCK II cells.

[3] = 10 μM, 120 min, mean ± SE, n = 2

Structure (SMILES)	fold increase of AUC versus BGP administered alone [1] [fold]	AUC [1] [ng·h/mL]	Papp MDCK II‐MDR1 A to B [2, 3]	Papp MDCK II‐MDR1 B to A [2, 3]	Flux ratio (MDCK II‐MDR1) (efflux ratio, ER) ([2]; 10 μM, Papp B to A / Papp A to B)	Net flux ratio [2]	AUC ([1]; both sexes, human, oral, read-out: AUC) [ng·h/mL]
CC(C)=CCc1cc(/C=C/C(=O)O)cc(CC=C(C)C)c1O [artepillin C]	1.7	312.9 ± 91.4	13.3 ± 0.7 10^−6 cm/s	11.4 ± 0.8 10^−6 cm/s	0.9	1.1	–
CC(C)=CCc1cc(/C=C/C(=O)O)ccc1O [drupanin]	1.5	–	–	–	–	0.9	446 ± 144
